This is an account of results in PMC8457007 (RNA, 2021).

In general, pIC50 refers to the negative decadic logarithm of the IC50, by convention in mol/L. High values mean a small IC50, low ones a large IC50.

In the assay the target is CPSF73 (Homo sapiens, UniProt Q9UKF6). Kind of assay: gel-based end-point fluorescence nuclease assay with reconstituted U7 machinery. It is filed as biochemical.

Molecules are shown by their SMILES. pIC50: −log10 of the molar value.

For the molecule `O=C(O)CCc1cccc2c1B(O)OC2` [AN3661], the pIC50 was 6.07.
